Results: patent US20230295159A1, “ATX INHIBITOR, AND PREPARATION METHOD THEREFOR AND USE THEREOF” (SUZHOU ARK BIOPHARMACEUTICAL CO., LTD., priority 2020, published 2023)
Like-named read-outs stand apart in the source and are kept apart here.

How the values were obtained:
hERG potassium channel = hERG potassium channel (Homo sapiens (Human), UniProt Q12809); experiment: hERG inhibition assay (manual whole-cell patch clamp); format: cell-based; conditions: hERG tail current, stable transfected cell line
Sequence of hERG potassium channel (Q12809 whole entry): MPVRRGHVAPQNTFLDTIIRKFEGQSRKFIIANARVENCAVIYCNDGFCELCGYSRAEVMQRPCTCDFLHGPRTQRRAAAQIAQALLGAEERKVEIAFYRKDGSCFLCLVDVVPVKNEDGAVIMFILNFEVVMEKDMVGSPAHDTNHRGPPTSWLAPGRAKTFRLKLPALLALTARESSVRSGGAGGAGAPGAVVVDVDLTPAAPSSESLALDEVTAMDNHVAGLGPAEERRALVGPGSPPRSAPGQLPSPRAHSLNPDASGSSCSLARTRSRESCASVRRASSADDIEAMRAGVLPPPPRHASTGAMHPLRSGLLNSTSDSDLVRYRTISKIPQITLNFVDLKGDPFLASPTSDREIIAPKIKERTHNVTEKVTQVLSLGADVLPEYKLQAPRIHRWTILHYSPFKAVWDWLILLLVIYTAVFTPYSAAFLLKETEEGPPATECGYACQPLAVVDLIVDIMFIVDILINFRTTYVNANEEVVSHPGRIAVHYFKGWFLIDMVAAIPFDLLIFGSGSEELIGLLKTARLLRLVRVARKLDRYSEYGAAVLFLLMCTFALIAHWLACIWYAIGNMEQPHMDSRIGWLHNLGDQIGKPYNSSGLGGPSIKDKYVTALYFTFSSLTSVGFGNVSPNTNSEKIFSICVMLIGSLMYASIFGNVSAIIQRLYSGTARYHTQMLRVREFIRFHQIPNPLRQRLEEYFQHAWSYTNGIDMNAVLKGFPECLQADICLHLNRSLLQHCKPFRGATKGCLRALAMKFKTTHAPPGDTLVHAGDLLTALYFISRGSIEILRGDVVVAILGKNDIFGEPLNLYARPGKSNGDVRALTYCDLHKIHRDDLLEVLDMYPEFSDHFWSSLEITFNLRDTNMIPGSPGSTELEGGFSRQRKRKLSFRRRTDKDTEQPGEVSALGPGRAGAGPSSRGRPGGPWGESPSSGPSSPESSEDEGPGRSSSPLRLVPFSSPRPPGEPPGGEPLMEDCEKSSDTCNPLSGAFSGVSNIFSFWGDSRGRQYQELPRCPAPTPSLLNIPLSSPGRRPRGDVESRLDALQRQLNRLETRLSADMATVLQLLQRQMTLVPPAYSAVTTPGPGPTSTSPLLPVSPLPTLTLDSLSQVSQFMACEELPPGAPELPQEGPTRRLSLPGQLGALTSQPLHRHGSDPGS
Procedure: Rapid activation of human delayed rectifier potassium current (IKr) is mainly mediated by hERG ion channel and participates in repolarization of human cardiomyocytes. Blocking this current with drugs will lead to QT interval prolongation syndrome in clinical practice, which will easily induce acute arrhythmia and even sudden death.
Experimental method: a whole-cell patch clamp technique was used to record hERG current. The cell suspension was added to a small petri dish and placed on an inverted microscope stage. After adherence, the cells were perfused with extracellular fluid at a recommended flow rate of 1-2 mL/min. The glass microelectrode was drawn by a microelectrode drawing instrument in two steps, and the resistance thereof after filling the electrode interior liquid was 2-5 MΩ. After the whole-cell recording mode was set up, the clamping potential was maintained at -80 mV. The depolarization voltage was applied to +60 mV for 850 ms, and then repolarized to -50 mV for 1275 ms to induce hERG tail current. Such a set of pulse programming was repeated every 15 seconds throughout the experiment. After the current was stable, the drug was administered by extracellular continuous perfusion from low concentration to high concentration. Starting from low concentration, perfusion continued until the drug effect was stable, then perfusion at the next concentration was performed. In this experiment, the blocking effect on hERG tail current was tested for the test objects at different concentrations and the positive control (N ≥ 2). Then, stimulus generation and signal acquisition were carried out by PatchMaster software; and a signal was amplified with a patch clamp amplifier. FitMaster, EXCEL, Graphpad Prism, SPSS 21.0, etc. were used for further data analysis and curve fitting. In data processing, when determining the blocking effect on hERG, the peak and baseline of tail current were calibrated. The inhibition rate (IR) of tail current was used to express the effect of the compounds at different concentrations.
IR = 100% × (peak of tail current before administration - peak of tail current after administration)/peak of tail current before administration.
IC50 was obtained by fitting the Hill equation (if applicable), if the maximum inhibition rate of the test object at all concentrations was less than 50%, then IC50 was not calculated. [00500]

ATX enzyme = ATX enzyme (Homo sapiens (Human), UniProt Q13822); experiment: ATX enzyme activity inhibition assay; format: biochemical; conditions: 16:0-LPC substrate, Amplex UltraRed fluorescence
Procedure: The tested compounds were dissolved with dimethyl sulfoxide (DMSO) to prepare 20 mM of stock solutions, the stock solutions were subjected to 4-fold gradient dilutions with DMSO, with the initial concentration of 20 µM and a total of 8 concentration gradients. 20 nL of diluted compound was transferred to a 384-well plate using Echo 550 and 5 µL of ATX enzyme solution formulated with 4 × Tris-HCl reaction buffer to the well, then the 384-well plate was centrifuged at 1000 rpm for 1 min and […] pre-incubated at room temperature for 15 min. Subsequently, 5 µL of 16:0-LPC foumulated with the above 4 × reaction buffer and 10 µL of assay solution containng 2 × Amplex UltraRed reagent, choline oxidase and horseradish peroxidase (HRP) foumulated with the same reaction buffer were added to each well, then the 384-well plate was centrifugated at 1000 rpm for 1 min. The fluorescence signals were read at an excitation wavelength of 530 nm and an emission wavelength of 590 nm by Synergy 2 microplate reader. The inhibition rate of the compound against enzyme reaction was calculated according to the fluorescence intensity ratio, and IC50 of the compound was analysed and calculated by GraphPad Prism 5 software.

CYP3A4 = CYP3A4 (Homo sapiens (Human), UniProt P08684); experiment: 3A4 subtype of CYP450 enzyme time-dependent inhibition assay (IC50 shift); format: in vitro ADME; conditions: probe testosterone, 50 µM; 30 min pre-incubation with vs without NADPH, testosterone substrate, human liver microsomes
Sequence of CYP3A4 (P08684 whole entry): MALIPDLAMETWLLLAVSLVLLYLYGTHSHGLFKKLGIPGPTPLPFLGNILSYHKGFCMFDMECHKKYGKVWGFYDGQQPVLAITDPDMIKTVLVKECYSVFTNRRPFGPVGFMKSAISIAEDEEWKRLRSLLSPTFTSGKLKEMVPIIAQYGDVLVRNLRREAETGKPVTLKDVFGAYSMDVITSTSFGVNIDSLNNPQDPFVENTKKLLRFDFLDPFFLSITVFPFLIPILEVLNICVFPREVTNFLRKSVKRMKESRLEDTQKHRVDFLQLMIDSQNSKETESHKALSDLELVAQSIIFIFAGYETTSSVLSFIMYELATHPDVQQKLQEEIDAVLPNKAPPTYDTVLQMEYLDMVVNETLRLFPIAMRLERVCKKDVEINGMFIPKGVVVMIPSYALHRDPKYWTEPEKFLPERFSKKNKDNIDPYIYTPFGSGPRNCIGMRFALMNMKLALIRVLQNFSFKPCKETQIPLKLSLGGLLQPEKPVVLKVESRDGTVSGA
Procedure: (§1) The probe substrate was testosterone at a concentration of 50 µM. The reaction was terminated after incubation for 10 min. The IC50 of the compound against enzyme was calculated by measuring the relative yield of metabolite, and the IC50 shift was calculated from the IC50 results of the groups pre-incubated with and without addition of NADPH.

[1] = Rat pharmacokinetic study; format: in vivo, SD rat; conditions: for F: PO 10 mg/kg vs IV 2 mg/kg; for AUC(0-inf) / AUC(0-t) / Cmax / half-life / Tmax: SD, plasma; for half-life: read-out: t½ (converted)
Procedure: SD rat pharmacokinetic study was performed on several compounds in Examples of the present disclosure through a single intravenous injection (IV, at a dose of 2 mg/kg) and a single oral administration (PO, at a dose of 10 mg/kg), and blood samples were taken before administration and 5 min, 15 min, 30 min, 1 h, 2 h, 4 h, 8 h, 12 h and 24 h after administration, respectively, to determine the plasma concentration of the compound for assay. The pharmacokinetic data of control compound and the compounds in Examples 17, 26, 28 and 29 of the present disclosure in rat plasma are shown in Tables 4-8.

[2] = molecular target: 3A4 subtype of CYP450 enzyme (Homo sapiens (Human), UniProt P08684); experiment: 3A4 subtype of CYP450 enzyme time-dependent inhibition assay (IC50 shift); format: in vitro ADME; conditions: both IC50 values above top concentration; testosterone substrate; read-out: IC50 against 3A4 subtype (both groups, pre-incubated with and without NADPH)
Sequence of 3A4 subtype of CYP450 enzyme (P08684 whole entry): as above
Procedure: as §1

[3] = test system: Chinese hamster ovary cells (CHO-WBL); experiment: In vitro micronucleus assay with Chinese hamster ovary cells
Procedure: In the major micronucleus assay, CHO-WBL cells were exposed to at least 3 concentrations of the test object, while vehicle control group and positive control group were set up, with 2 replicated wells for each dose group. In inactivated test system, the administration lasted for 3 and 24 hours, and in S9 activated test system, the exposure to the test object lasted for 3 hours.
When choosing the highest dose for micronucleus frequency assay, the cytotoxicity of dose group of the test object should not substantially exceed 50% of that of the corresponding vehicle control group.
On the premise that the test is valid, the test results are evaluated according to the following criteria:
If the test object simutaneously meets the following criteria, it can be considered as positive:
A significant increase in micronucleus frequency is observed in one or more concentration groups.
If none of the above three points is met, the test object can be considered as negative.

Row | SMILES | IC50 (hERG potassium channel) | IC50 (ATX enzyme) | IC50 shift at 10 min (CYP3A4) | Cl_F_pred ([1]; IV 2 mg/kg) | Cl_F_pred ([1]; PO 10 mg/kg) | F [1] | AUC(0-inf) ([1]; IV 2 mg/kg) | AUC(0-t) ([1]; IV 2 mg/kg) | Cmax ([1]; IV 2 mg/kg) | half-life ([1]; IV 2 mg/kg) | AUC(0-inf) ([1]; PO 10 mg/kg) | AUC(0-t) ([1]; PO 10 mg/kg) | Cmax ([1]; PO 10 mg/kg) | Tmax ([1]; PO 10 mg/kg) | half-life ([1]; PO 10 mg/kg) | further results
1 | CCN(c1nc(-c2ccc(F)cc2)c(C#N)s1)c1c2nc(-c3cnc(N4CC[C@H](O)C4)nc3)ccc2nn1CC [Example 27, (S)-2-(ethyl(2-ethyl-5-(2-(3-hydroxypyrrolidin-1-yl)pyrimidin-5-yl)-2H-pyrazolo[4,3-b]pyridin-3-yl)amino)-4-(4-fluorophenyl)thiazole-5-carbonitrile] | > 30 µM | 0.0046 µM | 0.63 |  |  |  |  |  |  |  |  |  |  |  |  | 
2 | CCN(c1nc(-c2ccc(F)cc2)c(C#N)s1)c1c2nc(-c3cnc(N4CCCS4(=O)=O)nc3)ccc2nn1CC [Example 17, 2-((5-(2-(1,1-dioxidoisothiazolidin-2-yl)pyrimidin-5-yl)-2-ethyl-2H-pyrazolo[4,3-b]pyridin-3-yl)(ethyl)amino)-4-(4-fluorophenyl)thiazole-5-carbonitrile] | > 30 µM | 0.0074 µM |  | 7.17 mL/min/kg | 18.2 mL/min/kg | 38.5% | 4720 ng·h/mL | 4680 ng·h/mL | 2540 ng/mL | 4 h | 9180 ng·h/mL | 9030 ng·h/mL | 1030 ng/mL | 4 h | 3.7 h | IC50 [2]: > 100 µM
3 | CCN(c1nc(-c2ccc(F)cc2)c(C#N)s1)c1c2nc(-c3cnc(N4CC(O)C4)nc3)ccc2nn1CC [Example 23, 2-(ethyl(2-ethyl-5-(2-(3-hydroxyazetidin-1-yl)pyrimidin-5-yl)-2H-pyrazolo[4,3-b]pyridin-3-yl)amino)-4-(4-fluorophenyl)thiazole-5-carbonitrile] |  | 0.011 µM |  |  |  |  |  |  |  |  |  |  |  |  |  | IC50 [2]: > 100 µM
4 | CCN(c1nc(-c2ccc(F)cc2)c(C#N)s1)c1c2nc(-c3cnc(N4CC[C@@H](O)C4)nc3)ccc2nn1CC [Example 28, (R)-2-(ethyl(2-ethyl-5-(2-(3-hydroxypyrrolidin-1-yl)pyrimidin-5-yl)-2H-pyrazolo[4,3-b]pyridin-3-yl)amino)-4-(4-fluorophenyl)thiazole-5-carbonitrile] |  | 0.0038 µM | 1.28 | 2.33 mL/min/kg | 10 mL/min/kg | 25.9% | 14100 ng·h/mL | 13900 ng·h/mL | 4380 ng/mL | 4.1 h | 18600 ng·h/mL | 18000 ng·h/mL | 1720 ng/mL | 4 h | 4.2 h | 
5 | CCc1nc2ccc(-c3cnc(CC(=O)N4CC(O)C4)cn3)cn2c1N(C)c1nc(-c2ccc(F)cc2)c(C#N)s1 [Example 4, 2-((2-ethyl-6-(5-(2-(3-hydroxyazetidin-1-yl)-2-oxoethyl)pyrazin-2-yl)imidazo[1,2-a]pyridin-3-yl)(methyl)amino)-4-(4-fluorophenyl)thiazole-5-carbonitrile] |  | 0.021 µM | 1.04 |  |  |  |  |  |  |  |  |  |  |  |  | 
6 | CCN(c1nc(-c2ccc(F)cc2)c(C#N)s1)c1c2nc(-c3cnc(N4CCC(O)CC4)nc3)ccc2nn1CC [Example 26, 2-(ethyl(2-ethyl-5-(2-(4-hydroxypiperidin-1-yl)pyrimidin-5-yl)-2H-pyrazolo[4,3-b]pyridin-3-yl)amino)-4-(4-fluorophenyl)thiazole-5-carbonitrile] | > 30 µM | 0.0055 µM | 1.09 | 4.17 mL/min/kg | 25 mL/min/kg | 16.6% | 8170 ng·h/mL | 7500 ng·h/mL | 3070 ng/mL | 9.3 h | 6720 ng·h/mL | 6230 ng·h/mL | 663 ng/mL | 4 h | 5.8 h | % binuclear cells containing micronucleus ([3]; 3-hour administration with metabolic activation, 3 µg/ml): 1.65%; % binuclear cells containing micronucleus ([3]; 3-hour administration with metabolic activation, 6 µg/ml): 1.65%; % binuclear cells containing micronucleus ([3]; 3-hour administration with metabolic activation, 12 µg/ml): 1.75%; % binuclear cells containing micronucleus ([3]; 3-hour administration with metabolic activation, 20 µg/ml): 1.60%; % binuclear cells containing micronucleus ([3]; 3-hour administration without metabolic activation, 3 µg/ml): 1.85%; % binuclear cells containing micronucleus ([3]; 3-hour administration without metabolic activation, 6 µg/ml): 1.80%; % binuclear cells containing micronucleus ([3]; 3-hour administration without metabolic activation, 12 µg/ml): 1.70%; % binuclear cells containing micronucleus ([3]; 3-hour administration without metabolic activation, 25 µg/ml): 1.50%; % binuclear cells containing micronucleus ([3]; 24-hour administration without metabolic activation, 1 µg/ml): 1.90%; % binuclear cells containing micronucleus ([3]; 24-hour administration without metabolic activation, 3 µg/ml): 1.65%; % binuclear cells containing micronucleus ([3]; 24-hour administration without metabolic activation, 6 µg/ml): 1.85%; % binuclear cells containing micronucleus ([3]; 24-hour administration without metabolic activation, 9 µg/ml): 1.80%; potential to induce micronucleus formation in CHO-WBL cells ([3]; overall verdict over all administration series): negative
7 | CCc1nc2ccc(-c3ccc(CC(=O)N4CC(O)C4)nc3)cn2c1N(C)c1nc(-c2ccc(F)cc2)c(C#N)s1 [Example 2, 2-((2-ethyl-6-(6-(2-(3-hydroxyazetidin-1-yl)-2-oxoethyl)pyridin-3-yl)imidazo[1,2-a]pyridin-3-yl)(methyl)amino)-4-(4-fluorophenyl)thiazole-5-carbonitrile] |  | 0.029 µM |  |  |  |  |  |  |  |  |  |  |  |  |  | 
8 | CCc1nc2ccc(-c3cnc(CC(=O)N4CC[C@@H](O)C4)cn3)cn2c1N(C)c1nc(-c2ccc(F)cc2)c(C#N)s1 [Example 13, (R)-2-((2-ethyl-6-(5-(2-(3-hydroxypyrrolidin-1-yl)-2-oxoethyl)pyrazin-2-yl)imidazo[1,2-a]pyridin-3-yl)(methyl)amino)-4-(4-fluorophenyl)thiazole-5-carbonitrile] |  | 0.013 µM |  |  |  |  |  |  |  |  |  |  |  |  |  | 
9 | CCc1nc2ccc(-c3ccc(CC(=O)N4CC(O)C4)nn3)cn2c1N(C)c1nc(-c2ccc(F)cc2)c(C#N)s1 [Example 5, 2-((2-ethyl-6-(6-(2-(3-hydroxyazetidin-1-yl)-2-oxoethyl)pyridazin-3-yl)imidazo[1,2-a]pyridin-3-yl)(methyl)amino)-4-(4-fluorophenyl)thiazole-5-carbonitrile] |  | 0.048 µM |  |  |  |  |  |  |  |  |  |  |  |  |  | 
